Laboratory results reported in patent publication US12528784B2, “Alkynyl-(heteroaryl)-carboxamide HCN1 inhibitors” (Hoffmann-La Roche Inc., priority 2019, dated 2026).

Columns and labels:
HCN1 = molecular target: T1, HCN1 (Homo sapiens, UniProt O60741); assay: HCN1 automated patch clamp current inhibition assay (Ionworks Barracuda); type: cell-based; details: HEK-293 cells stably expressing HCN1; current inhibition during a hyperpolarizing pulse of -100 mV
T1 construct: expressed in transfected cells
T1 sequence (O60741 1-890): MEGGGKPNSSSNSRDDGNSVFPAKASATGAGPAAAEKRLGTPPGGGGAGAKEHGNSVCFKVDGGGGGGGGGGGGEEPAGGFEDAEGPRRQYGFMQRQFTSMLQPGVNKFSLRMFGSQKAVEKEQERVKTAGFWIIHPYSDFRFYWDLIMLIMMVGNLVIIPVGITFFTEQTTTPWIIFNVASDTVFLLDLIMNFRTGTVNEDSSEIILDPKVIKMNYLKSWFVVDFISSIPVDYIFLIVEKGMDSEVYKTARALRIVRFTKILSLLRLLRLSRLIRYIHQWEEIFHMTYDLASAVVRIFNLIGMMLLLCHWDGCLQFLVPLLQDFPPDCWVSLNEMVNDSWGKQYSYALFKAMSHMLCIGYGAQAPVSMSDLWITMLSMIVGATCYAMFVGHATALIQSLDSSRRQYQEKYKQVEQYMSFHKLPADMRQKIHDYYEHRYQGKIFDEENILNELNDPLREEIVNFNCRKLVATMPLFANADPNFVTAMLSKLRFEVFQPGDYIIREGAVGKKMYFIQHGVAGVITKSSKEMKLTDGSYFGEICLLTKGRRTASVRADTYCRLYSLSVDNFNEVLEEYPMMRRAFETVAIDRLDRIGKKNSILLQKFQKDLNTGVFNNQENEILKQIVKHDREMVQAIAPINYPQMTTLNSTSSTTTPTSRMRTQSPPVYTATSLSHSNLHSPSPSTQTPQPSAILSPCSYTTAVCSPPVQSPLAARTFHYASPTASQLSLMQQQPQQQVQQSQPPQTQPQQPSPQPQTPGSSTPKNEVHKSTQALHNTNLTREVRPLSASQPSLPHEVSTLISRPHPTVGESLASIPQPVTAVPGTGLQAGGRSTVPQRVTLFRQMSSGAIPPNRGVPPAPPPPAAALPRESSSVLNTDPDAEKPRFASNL
Protocol: (§1) In vitro, high-throughput cellular electrophysiology was employed to detect voltage- and use-dependence of compounds in single concentration screening and IC50 determination for library and medicinal chemistry profiling compounds in 384 well plates.
(§2) Cell cultures were maintained in DMEM/F12 cell growth media containing FBS and appropriate antibiotics at 37° C., 5% CO2 for a maximum of 20 passages. At a time point of 40-72 hours prior to assay, the expression of HCN protein in the cells is induced by addition of tetracyclin. Cells may be incubated at 27° C. for 2-24 hours of induction. […] Cells were harvested at 80% confluency and resuspended in extracellular buffer and added to wells. A freshly prepared Escin solution was added to intracellular buffer and applied to establish whole cell recording via perforated patch clampling by APC.
(§3) Currents through activated channels were measured directly by APC by employing hyperpolarizing voltage steps. The activation window was increased and stabilized by the addition of cell permeable Br-cAMP. Baselines were established for both use- and voltage-dependence protocols using a −30 mV holding potential and multiple test pulses at −100 mV or by 20 mV steps from −120 to 0 mV, respectively. Test compounds were added after baseline recordings followed by a 10 min incubation, voltage-dependency protocol recording, and use-dependency recording. Data was corrected for baseline and rundown (well based) and normalized for % inhibition (plate based). Five previously reported HCN inhibitors of varying potencies and selectivities and zatebradine were used for run to run and plate to plate quality controls. […] Percent inhibition was analysed at −80, −100, −120 mV of the voltage-dependency protocol and at pulse 0 and 50 of the use-dependency protocols. Selectivity was assessed against HCN2, HCN3, and HCN4 overexpressing cell lines using similar methods. As HCN4 has a slower activation than the other HCN channels, activation was extended to achieve steady state activation.

HCN3 = molecular target: T2, HCN3 (Homo sapiens, UniProt Q9P1Z3); assay: HCN3 automated patch clamp current inhibition assay (Ionworks Barracuda); type: cell-based; details: HEK-293 cells stably expressing HCN3; current inhibition during a hyperpolarizing pulse of -100 mV
T2 construct: expressed in transfected cells
T2 sequence (Q9P1Z3 1-774): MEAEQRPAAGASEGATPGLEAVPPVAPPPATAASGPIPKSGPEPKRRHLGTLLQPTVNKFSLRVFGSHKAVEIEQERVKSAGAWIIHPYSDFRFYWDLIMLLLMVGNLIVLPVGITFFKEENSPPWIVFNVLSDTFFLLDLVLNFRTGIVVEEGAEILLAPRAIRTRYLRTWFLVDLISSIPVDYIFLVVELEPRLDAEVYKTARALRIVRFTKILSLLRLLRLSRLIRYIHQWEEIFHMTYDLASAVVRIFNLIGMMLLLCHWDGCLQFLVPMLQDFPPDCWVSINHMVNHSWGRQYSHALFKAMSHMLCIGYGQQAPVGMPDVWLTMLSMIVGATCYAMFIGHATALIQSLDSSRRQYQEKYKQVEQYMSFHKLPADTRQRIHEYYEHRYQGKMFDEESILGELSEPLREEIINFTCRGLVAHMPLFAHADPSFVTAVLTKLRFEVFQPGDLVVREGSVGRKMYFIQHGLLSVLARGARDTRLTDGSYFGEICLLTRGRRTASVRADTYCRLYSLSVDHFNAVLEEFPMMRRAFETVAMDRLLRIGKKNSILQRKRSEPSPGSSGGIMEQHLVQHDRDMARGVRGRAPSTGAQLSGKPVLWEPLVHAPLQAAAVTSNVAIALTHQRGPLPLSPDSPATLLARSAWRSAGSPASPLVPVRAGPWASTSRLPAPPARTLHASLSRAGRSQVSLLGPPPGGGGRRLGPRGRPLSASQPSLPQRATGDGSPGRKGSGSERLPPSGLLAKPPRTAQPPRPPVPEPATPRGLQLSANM
Protocol: as §1, §2, §3

Row | IC50 (HCN1) | IC50 (HCN3) | Structure (SMILES)
1 | 159 nM | > 40000 nM | Cc1ccc(-n2c(C(N)=O)nc(C#Cc3ccnc(Cl)c3C)c2C)cn1 [Example 1, 4-((2-Chloro-3-methylpyridin-4-yl)ethynyl)-5-methyl-1-(6-methylpyridin-3-yl)-1H-imidazole-2-carboxamide]
2 | 173 nM | > 40000 nM | Cc1ccc(-n2c(C(N)=O)nc(C#Cc3ccnc(Cl)c3F)c2C)cn1 [Example 2, 4-((2-Chloro-3-fluoropyridin-4-yl)ethynyl)-5-methyl-1-(6-methylpyridin-3-yl)-1H-imidazole-2-carboxamide]
3 | 100 nM | 25700 nM | Cc1ccc(-n2c(C(N)=O)nc(C#Cc3csc(Cl)c3)c2C)cn1 [Example 3, 4-[2-(5-Chlorothiophen-3-yl)ethynyl]-5-methyl-1-(6-methylpyridin-3-yl)imidazole-2-carboxamide]
4 | 225 nM | 32800 nM | Cc1ccc(-n2c(C(N)=O)nc(C#Cc3cccc(Cl)c3)c2C)cn1 [Example 4, 4-[2-(3-Chlorophenyl)ethynyl]-5-methyl-1-(6-methyl-3-pyridyl)imidazole-2-carboxamide]
5 | 240 nM | > 40000 nM | Cc1ccc(-n2c(C(N)=O)nc(C#Cc3cccc(C#N)c3)c2C)cn1 [Example 5, 4-((3-Cyanophenyl)ethynyl)-5-methyl-1-(6-methylpyridin-3-yl)-1H-imidazole-2-carboxamide]
6 | 260 nM | > 40000 nM | Cc1ccc(-n2c(C(N)=O)nc(C#Cc3ccnc(Cl)c3)c2C)cn1 [Example 6, 4-(2-Chloro-pyridin-4-ylethynyl)-5-methyl-1-(6-methyl-pyridin-3-yl)-1H-imidazole-2-carboxylic Acid Amide]
7 | 460 nM | 36400 nM | COc1cccc(C#Cc2nc(C(N)=O)n(-c3ccc(C)nc3)c2C)c1 [Example 8, 4-((3-Methoxyphenyl)ethynyl)-5-methyl-1-(6-methylpyridin-3-yl)-1H-imidazole-2-carboxamide]
8 | 579 nM | > 40000 nM | Cc1cccc(C#Cc2nc(C(N)=O)n(-c3ccc(C)nc3)c2C)c1 [Example 10, 5-Methyl-1-(6-methylpyridin-3-yl)-4-(m-tolylethynyl)-1H-imidazole-2-carboxamide]
9 | 303 nM | 2400 nM | Cc1cnc(-n2c(C(N)=O)nc(C#Cc3ccnc(Cl)c3C)c2C)cn1 [Example 23, 4-[2-(2-Chloro-3-methyl-4-pyridyl)ethynyl]-5-methyl-1-(5-methylpyrazin-2-yl)imidazole-2-carboxamide]
10 | 241 nM | > 40000 nM | Cc1c(C#Cc2nc(C(N)=O)n(-c3ccc(Cl)nc3)c2C)ccnc1Cl [Example 26, 4-[2-(2-Chloro-3-methyl-4-pyridyl)ethynyl]-1-(6-chloro-3-pyridyl)-5-methyl-imidazole-2-carboxamide]
11 | 51 nM | 38400 nM | COc1ccc(-n2c(C(N)=O)nc(C#Cc3ccnc(Cl)c3C)c2C)cn1 [Example 27, 4-[2-(2-Chloro-3-methyl-4-pyridyl)ethynyl]-1-(6-methoxy-3-pyridyl)-5-methyl-imidazole-2-carboxamide]
12 | 192 nM | > 40000 nM | Cc1ccc(-n2c(C(N)=O)nc(C#Cc3ccnc(Cl)c3C)c2C)nc1 [Example 28, 4-[2-(2-Chloro-3-methyl-4-pyridyl)ethynyl]-5-methyl-1-(5-methyl-2-pyridyl)imidazole-2-carboxamide]
13 | 231 nM | 23500 nM | Cc1ccc(-n2c(C(N)=O)cc(C#Cc3ccnc(Cl)c3)c2C)cn1 [Example 31, 4-[2-(2-Chloro-4-pyridyl)ethynyl]-5-methyl-1-(6-methyl-3-pyridyl)pyrrole-2-carboxamide]
14 | 429 nM | > 40000 nM | Cc1ccc(-c2c(C(N)=O)nc(C#Cc3ccnc(Cl)c3)n2C)cn1 [Example 32, 2-[2-(2-Chloro-4-pyridyl)ethynyl]-1-methyl-5-(6-methyl-3-pyridyl)imidazole-4-carboxamide]
15 | 232 nM | > 40000 nM | Cc1ccc(-n2c(C(N)=O)nc(C#Cc3ccnc(Cl)c3)c2C)cc1 [Example 38, 4-[2-(2-Chloro-4-pyridyl)ethynyl]-5-methyl-1-(p-tolyl)imidazole-2-carboxamide]
16 | 383 nM | > 40000 nM | Cc1c(C#Cc2ccnc(Cl)c2)nc(C(N)=O)n1-c1ccc(Cl)cc1 [Example 39, 1-(4-Chlorophenyl)-4-((2-chloropyridin-4-yl)ethynyl)-5-methyl-1H-imidazole-2-carboxamide]
17 | 2520 nM | > 40000 nM | NC(=O)c1nc(C#Cc2ccnc(Cl)c2)cn1-c1ccc(F)cc1 [Example 42, 4-(2-Chloro-pyridin-4-ylethynyl)-1-(4-fluoro-phenyl)-1H-imidazole-2-carboxylic Acid Amide]
